This note sets out measurements from patent US7022711B2, “2-(4-Pyridyl)amino-6-dialkoxyphenyl-pyrido[2,3-d]pyrimidin-7-ones” (Warner-Lambert Company, priority 2000, dated 2006).

Some results are limits rather than exact numbers.

Data set [1] concerns VEGFR-2 and FGFR-1 compared to PDGFR, Lck, and c-Src. The data set can be described thus: Kinase selectivity comparison across the kinase inhibition assays. In kind it is biochemical. Particulars: compared with reference Compounds A and B. An excerpt:
The invention compounds have been evaluated in the in vitro biological assays described in U.S. Pat. No. 5,733,914. […] Reference Compound A has a 2,6-dichloro phenyl group at the 6-position. Reference Compound B has a 3,5-dimethoxyphenyl group at the 6-position and a substituted phenylamino at the 2-position. The invention compound of Example 8 has the required 3,5-dimethoxyphenyl at the 6-position and the required (4-pyridyl)amino at the 2-position. The structures are shown in Table 1, along with their respective inhibitory activities against various tyrosine kinases, when evaluated in the models described in U.S. Pat. No. 5,733,914.
The preferred kinase selectivity profile of the compound in Example 8 is shared by the other representative compounds of the invention shown in Table 2. The inhibition activity of the compounds in Examples 8, 9, 10, 11, and 12 and Reference Compounds A and B were evaluated using the Dissociated Enhanced Lanthanide Fluoroimmuno Assay (DELFIA) (Frank Loganzo and Carolyn Hardy. A sensitive, time-resolved fluorometric assay for the detection of inhibitors of phosphotyrosine kinases. American Biotechnology Laboratory, December 1998). […] One hundred microliter DELFIA enhancement solution (EG&G Wallac) was added and time-resolved fluorescence of the reactions determined using a VICTOR2 1420 multilable counter (EG&G Wallac). […]

Data set [2] deals with Mammary Adenocarcinoma M16/C. As to the kind of experiment: Antitumor activity in vivo, M16/C mammary tumor model. Particulars: for CRs, complete regression / T-C (Days), tumor growth delay to 750 mg / T/C (%), median treated tumor mass/median control tumor mass / NSD, nonspecific deaths/total in treatment group: D7-15; for T/C (%), median treated tumor mass/median control tumor mass: 3 days after the end of therapy. Here is the method: The anticancer efficacy of the compound of Example 8 was evaluated using a murine mammary […] tumor model, M16/C. This highly vascularized tumor is very aggressive with a doubling time of 1.5 days. Tumor fragments were implanted by trocar fragment in the right axilla of C3H mice on Day 0. The efficacy of treatment was assessed both in an advanced stage model (test compound treatment for nine consecutive days after tumors had reached 100 mg). The compound in Example 8 was dosed once a day over the treatment period by oral gavage in 0.05 M sodium lactate buffer, pH 4. Animals were allowed to continue off therapy until the tumors reached the evaluable size (750 mg). Animal weights were determined throughout the study to provide an estimate of test compound toxicity. A mean weight loss >10% (3–4 g) for any treatment group is an indication of host toxicity. Anticancer activity was evaluated using two methods. The first is %T/C where T=median mass of treated tumors 3 days after the end of therapy, and C=median mass of the control group at that same time point. The highest degree of antitumor activity using this assessment occurs when T=0, and %T/C=0%. […] The second method uses tumor growth delay (T−C), where T=the days for the median treated tumor to reach an evaluable size (750 mg), and C=days for control tumors to reach that same size.

The next data set relates to A90 human ovarian cells. The data set can be described thus: A90 tumor cell proliferation (Sulphorhodamine B). The format is cell-based. The following applies: 4 days with compound. The method, then: (§1) Human umbilical vein endothelial cells (HUVECs) (Clonetics, Palo Alto, Calif.) were seeded at 2000 cells per well in growth medium containing 2% serum (EGM, Clonetics) and allowed to attach overnight (37° C., 5% CO2, 100% humidity). C6 rat glioma cells (ATCC) were seeded at 600 cells per well and incubated in F10 medium (GIBCO, Gaithersburg, Md.) supplemented with 15% horse serum, 2.5% fetal bovine serum, and 1 mM glutamine. A90 human ovarian cells (Dr. Kent Crickard, SUNY/AB Medical School) were seeded at 600 cells per well in RPMI1640 (GIBCO) plus 10% fetal bovine serum. Plates were incubated overnight (37° C., 5% CO2, 100% humidity) to allow the cells to attach. Test compound dilutions were added to the appropriate wells, and the incubation was continued for 4 additional days. Monolayers were fixed in 10% trichloroacetic acid (30 minutes at 4° C.), washed with distilled water, and stained with Sulphorhodamine B (0.075% in 1% acetic acid) (Sigma). Plates were washed in 1% acetic acid, and the bound dye was solubilized in 100 μL unbuffered Tris base. Absorbance was measured at 540 nm using a reference filter wavelength of 630 nm. Inhibitor potency (IC50) versus cellular proliferation was determined, and endothelial cell selectivity was assessed by comparing the inhibition of HUVEC proliferation to A90 and C6 tumor cell proliferation (Table 3).

The subject of the next data set is C6 rat glioma cells. As to the kind of experiment: C6 tumor cell proliferation (Sulphorhodamine B). In kind it is cell-based. Particulars: 4 days with compound. The method, then: as §1

With “6-(3,5-Dimethoxy-phenyl)-8-ethyl-2-(pyridin-4-ylamino)-8H-pyrido[2,3-d]pyrimidin-7-one [Example 8]”, in data set [1], the “selectivity for VEGFR-2 and FGFR-1 compared to PDGFR, Lck, and c-Src” value is reported as “more selective”. In addition, in data set [2] (5 mg/kg, oral), the “CRs, complete regression” value was 0/6; the “T-C (Days), tumor growth delay to 750 mg” value stood at 4.3 days; the “T/C (%), median treated tumor mass/median control tumor mass” value was determined as 39%. Also, in data set [2] (10 mg/kg, oral), the “NSD, nonspecific deaths/total in treatment group” value (“NSD, nonspecific deaths/total” below) was 0/6; the “T-C (Days), tumor growth delay to 750 mg” value is 7.9 days; the “T/C (%), median treated tumor mass/median control tumor mass” value turned out to be 15%. Also, in data set [2] (20 mg/kg, oral), the “CRs, complete regression” value is 4/6; the “NSD, nonspecific deaths/total” value is reported as 0/6; the “T-C (Days), tumor growth delay to 750 mg” value came to 10.7 days; the “T/C (%), median treated tumor mass/median control tumor mass” value is on record as 0%. For the same substance, in data set [2] (40 mg/kg, oral), the “CRs, complete regression” value was 6/6; the “NSD, nonspecific deaths/total” value is on record as 0/6; the “T-C (Days), tumor growth delay to 750 mg” value was 12.4 days; the “T/C (%), median treated tumor mass/median control tumor mass” value came to 0%. In data set [2] (40 and 20 mg/kg dose levels), the “regression of tumors below the level of palpation” value is given as “complete regressions” and the “tumor growth delay (T−C) relative to duration of therapy” value is recorded as “greater than the duration of therapy”. Further, the “anticancer activity (%T/C)” value in data set [2] (all four doses tested) is “meaningful anticancer activity”. For the same substance, the tolerability result in data set [2] (all four doses tested, oral, nine consecutive days) is reported as “well-tolerated”. Besides, the IC50 in the data set with A90 human ovarian cells was 2.92 µM. The IC50 in the data set with C6 rat glioma cells is more than 25 µM.

As a reminder, the IC50 is the point on the concentration scale where inhibition reaches its midpoint.
